From patent US12509423B2, “Compound, aldehyde dehydrogenase 2 activating agent, pharmaceutical composition, and therapeutic and/or prophylactic drug” (Alchemedicine, Inc., priority 2020, dated 2025) come the findings set out here.

For data set [1], the system named is pain induced by carrageenan (mechanical allodynia). Briefly: Suppression effect on pain induced by carrageenan (von Frey escape score). The data set is classed as in vivo, C57BL/6J mice. The following applies: mean ± SE. As to the method: This experiment was carried out with reference to Science Translational Medicine 6, 251ra118 (2014). Animals used were 7-week-old male C57BL/6J mice (Charles River Laboratories Japan, Inc.). To induce mechanical allodynia to a sole part, carrageenan was subcutaneously administered to the sole of the left hind limb of each mouse. The escape response against mechanical stimulation 180 minutes after the induction was measured by using a von Frey filament with bending force (0.16 grams) to the sole surface of the left hind limb in the ascending direction. […] The commercially available statistical program SAS SYSTEM (SAS Software Release 9.1.3; SAS Institute Japan Ltd.) was used for the significance test.

Data set [2] is described as follows: Metabolic stability with mouse hepatic microsomes. Type of data set: in vitro ADME. As to the method: Metabolic stability in mouse hepatic microsomes was evaluated with the following method.
• (1) Mouse hepatic microsomes: 20 mg/mL • (2) Test compound: 1.1 mM DMSO solution • (3) Potassium phosphate buffer solution: 66.7 mM (pH 7.4) • (4) NADPH solution: 10 mM in potassium phosphate buffer solution • (5) Quenching solution: 0.5% formic acid-acetonitrile solution with warfarin as internal standard substance 2. Method
Into a propylene tube, 971.5 μL of the potassium phosphate buffer solution and 27.5 μL of the mouse hepatic microsomes were put and suspended. Thereto, 1 μL of a test compound was added, and 180 μL was taken from this mixture and transferred into another tube. The mixture was preincubated at 37° C. for 5 minutes, and 20 μL of the NADPH solution (for the case with an incubation time of 30 minutes) or 20 μL of the potassium phosphate buffer solution (for the case with an incubation time of 0 minutes) was then added thereto. After incubation, 200 μL of the quenching solution was added to terminate the reaction. Subsequently, centrifugation was performed at 3220×g for 20 minutes, and the concentration of the unchanged form of the test compound in 200 μL of the supernatant was measured with LC-MS/MS. On the basis of the peak area obtained for the unchanged form, the residual rate (%) of the unchanged form was calculated as that for the case with an incubation time of 0 minutes was assumed as 100%.

Data set [3] deals with hERG (human Ether-a-go-go Related Gene) channel (Homo sapiens, UniProt Q12809). Briefly: hERG channel inhibition effect (whole-cell patch clamp). The data set is classed as cell-based. The following applies: 22 to 25° C. As to the method:
The hERG (human Ether-a-go-go Related Gene) channel inhibition effect of each test compound was examined with the following patch clamp method.
Under a fixed potential, an hERG current that passed through the whole cell membrane was recorded with the whole-cell patch clamp method.
To confirm the hERG current, the holding potential was set to −80 mV, and depolarizing pulses at −50 mV for 110 msec and at 20 mV for 4 sec and a subsequent repolarizing pulse at −50 mV for 2 sec were provided at a frequency of once per 15 seconds. After the stabilization of the hERG tail current obtained was confirmed, an application was initiated. The pulses were continuously provided also during the application.
The sampling frequency was set to 5 kHz, and Lowpass Filter was applied at 2 kHz. […]
hERG currents were measured by using an amplifier for patch clamping (Axopatch 200B, Molecular Devices, LLC), and electric signals obtained were recorded in a computer via recording/analysis software for patch clamping (pCLAMP 10, Molecular Devices, LLC).
The maximum tail current value was determined on the basis of the current value with the depolarizing pulse at −50 mV for 110 msec, and the change rate (suppression rate) 5 minutes after the initiation of application to the maximum tail current value before application of the test compound was calculated.

In data set [4] the target is T1, human recombinant ALDH2 enzyme (Homo sapiens, UniProt P05091).
T1 construct: purchased BioVision Inc
T1 sequence (P05091 18-517): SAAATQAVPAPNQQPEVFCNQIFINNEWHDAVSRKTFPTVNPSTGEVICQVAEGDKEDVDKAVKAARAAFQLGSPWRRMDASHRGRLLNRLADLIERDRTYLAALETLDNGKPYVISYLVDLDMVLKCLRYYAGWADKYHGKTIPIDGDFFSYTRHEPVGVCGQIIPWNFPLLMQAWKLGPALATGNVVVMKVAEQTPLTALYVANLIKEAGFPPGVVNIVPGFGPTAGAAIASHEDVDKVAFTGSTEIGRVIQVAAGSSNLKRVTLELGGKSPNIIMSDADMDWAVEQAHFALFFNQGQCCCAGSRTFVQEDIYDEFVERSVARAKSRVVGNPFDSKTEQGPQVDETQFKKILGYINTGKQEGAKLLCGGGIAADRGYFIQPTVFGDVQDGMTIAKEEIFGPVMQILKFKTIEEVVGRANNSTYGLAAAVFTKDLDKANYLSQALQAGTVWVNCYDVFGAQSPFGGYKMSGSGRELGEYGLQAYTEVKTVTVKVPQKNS
Briefly: ALDH2 activation effect (acetaldehyde oxidation rate, PicoProbe Aldehyde dehydrogenase Activity Assay Kit). Type of data set: biochemical. As to the method: The activation effect of each test compound on the acetaldehyde oxidation rate of ALDH2 was measured with the following method. A test was conducted by using a commercially available PicoProbe™ Aldehyde dehydrogenase Activity Assay Kit (manufactured by BioVision Inc.) with reference to an instruction attached to the product under the following conditions. To each well of a 384-well plate, the following (1) to (3) were sequentially added with a pipette: • (1) 10 μL of solution obtained by dissolving and diluting a human recombinant ALDH2 enzyme (manufactured by BioVision Inc.) with ALDH assay Buffer to reach 3-μg/mL; • (2) 10 μL of 30 μM or 90 μM test compound solution (with 3% DMSO) prepared by using ALDH assay Buffer; and • (3) 10 μL of Reaction mix composed with ratio of 8.6 μL of ALDH assay Buffer, 0.6 μL of PicoProbe, 0.3 μL of Substrate Mix, and 1.5 μL of Acetaldehyde.
Before addition of (3), incubation was performed at room temperature for 5 minutes. After addition of (3), fluorescence intensity was measured at room temperature every 2.5 minutes over a period of 180 minutes by using an EnSight (manufactured by PerkinElmer Inc.). Wavelengths of 535 nm and 587 nm were used for fluorescence intensities of excitation and -emission, respectively.

Data set [5] in a line: Metabolic stability with human hepatic microsomes. The data set is classed as in vitro ADME. The settings on record: human hepatic microsomes 0.1 mg protein/mL, 0.1 μmol/L test compound, after 30 minutes, 37° C. As to the method:
The specific method is as follows.
• (1) Fifty microliter-portions were taken from 0.2 μmol/L test compound diluted with β-NADPH solution. • (2) Fifty microliters of 0.2 mg protein/mL human hepatic microsome solution was added to each (except for a sample with a reaction time of 0 minutes). • (3) Incubation was performed with shaking at 37° C. for 30 minutes (concentration in reaction sample: 0.1 μmol/L test compound, 0.1 mg protein/mL human hepatic microsome). • (4) After incubation, 400 μL of methanol was added to terminate the reaction. • (5) To the sample with a reaction time of 0 minutes, 50 μL of 0.2 mg protein/mL hepatic microsome solution was added. • (6) Each of the samples from (4) and (5) was left to stand at −20° C. for 30 minutes or longer, and then centrifuged at 4° C. and 3,000 rpm for approximately 10 minutes. • (7) The supernatant was subjected to measurement with LC/MS/MS, and, based on the peak area obtained for the unchanged form, the residual rate (%) of the unchanged form was calculated as that for the case with an incubation time of 0 minutes was assumed as 100%.

Each structure is given as a SMILES string.

Chain of hERG (human Ether-a-go-go Related Gene) channel (Q12809 whole entry): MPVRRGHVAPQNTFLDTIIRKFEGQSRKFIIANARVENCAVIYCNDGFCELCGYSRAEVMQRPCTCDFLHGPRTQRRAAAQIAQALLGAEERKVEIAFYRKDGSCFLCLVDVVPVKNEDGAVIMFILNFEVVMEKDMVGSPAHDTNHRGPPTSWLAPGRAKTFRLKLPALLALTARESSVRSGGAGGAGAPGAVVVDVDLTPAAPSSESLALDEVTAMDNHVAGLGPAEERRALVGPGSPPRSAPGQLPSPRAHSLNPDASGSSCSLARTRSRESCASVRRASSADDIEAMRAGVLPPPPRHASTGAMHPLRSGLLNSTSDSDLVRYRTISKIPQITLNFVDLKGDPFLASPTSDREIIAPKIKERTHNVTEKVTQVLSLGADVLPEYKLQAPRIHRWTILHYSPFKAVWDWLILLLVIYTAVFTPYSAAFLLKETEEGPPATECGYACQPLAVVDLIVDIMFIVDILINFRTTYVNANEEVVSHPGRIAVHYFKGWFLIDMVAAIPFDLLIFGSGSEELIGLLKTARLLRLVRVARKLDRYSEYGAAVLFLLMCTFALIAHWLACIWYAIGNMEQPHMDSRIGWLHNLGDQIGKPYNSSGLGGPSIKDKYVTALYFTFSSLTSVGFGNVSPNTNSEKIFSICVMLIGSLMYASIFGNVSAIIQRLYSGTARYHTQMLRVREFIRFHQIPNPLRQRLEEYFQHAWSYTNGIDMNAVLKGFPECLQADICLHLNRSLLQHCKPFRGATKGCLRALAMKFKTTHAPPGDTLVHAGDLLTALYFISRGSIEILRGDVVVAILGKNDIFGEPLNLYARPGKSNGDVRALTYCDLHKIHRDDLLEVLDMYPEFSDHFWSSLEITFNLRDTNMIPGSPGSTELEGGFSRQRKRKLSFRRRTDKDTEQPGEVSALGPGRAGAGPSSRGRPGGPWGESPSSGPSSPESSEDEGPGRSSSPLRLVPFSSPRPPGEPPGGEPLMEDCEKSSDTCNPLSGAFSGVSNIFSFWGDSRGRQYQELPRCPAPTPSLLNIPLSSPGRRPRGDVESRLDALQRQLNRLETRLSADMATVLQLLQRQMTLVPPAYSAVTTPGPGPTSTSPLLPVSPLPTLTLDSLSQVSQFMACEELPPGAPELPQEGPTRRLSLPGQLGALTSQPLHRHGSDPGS

For orientation: IC50 means the point on the concentration scale where inhibition reaches its midpoint. A lower IC50 goes with greater potency in that assay. Take `COCc1ccc(CNC(=O)c2cc(-c3ncccc3CO)ccc2F)cc1F` [Example 1, 2-Fluoro-N-(3-fluoro-4-(methoxymethyl)benzyl)-5-(3-(hydroxymethyl)pyridin-2-yl)benzamide]: the Pain-related total score was found to be 10.5 ± 1.6 in data set [1] (2 mg/kg s.c. three times, 180 min after induction with carrageenan); 3.0 ± 0.3 in data set [1] (2 mg/kg s.c. three times, Pre (before carrageenan treatment)); 8.3 ± 1.0 in data set [1] (6 mg/kg s.c. three times, 180 min after induction with carrageenan, significant difference from Vehicle group); 3.0 ± 0.3 in data set [1] (6 mg/kg s.c. three times, Pre (before carrageenan treatment)); 8.6 ± 1.4 in data set [1] (20 mg/kg s.c. three times, 180 min after induction with carrageenan); 3.0 ± 0.3 in data set [1] (20 mg/kg s.c. three times, Pre (before carrageenan treatment)). In data set [2], the “metabolic stability in mouse hepatic microsomes (in words)” value is listed as “confirmed to have stability”. In addition, the “Residual rate (%) of unchanged form” value in data set [2] (mouse hepatic microsomes, after 30 minutes, 37° C., NADPH) is on record as 90%; in data set [5], 90%. For the same compound, the half-maximal inhibitory concentration (IC50) in data set [3] is above 100 µM. Besides, the “acetaldehyde oxidation rate (rate with no test compound assumed as 100%)” value worked out at 196% in data set [4] (concentration of test compound 10 μM) and 238% in data set [4] (concentration of test compound 30 μM).
